Our source for the activity, EC50 (potentiation) and NR2C response values is US9737522B2, “NMDA receptor modulators and uses related thereto” (EMORY UNIVERSITY, priority 2012, dated 2017).

What all share (format): cell-based
Assay [1] addresses recombinant rat GluN1/GluN2D receptors (NR2D) (Rattus norvegicus (Rat), UniProt P35439+Q62645). As to the kind of experiment: Two-electrode voltage-clamp recordings, Xenopus laevis oocytes, NR2D. Conditions: current in the absence of compound = 100%, 100 μM glutamate plus 30 μM glycine, read-out: NR2D response. As for the experimental part:
(§1) Two-electrode voltage-clamp recordings were made from Xenopus laevis oocytes expressing recombinant rat GluN1/GluN2A, GluN1/GluN2B, GluN1/GluN2C, GluN1/GluN2D, GluA1, or GluK2 receptors following injection of 5-10 ng of cRNA synthesized according to manufacturers' protocols (Ambin, mMessage, mMachine). cDNAs used were rat GluN1-1a (GenBank accession numbers U11418 and U08261; hereafter GluN1), GluN2A (D13211), GluN2B (U11419), GluN2C (M91563), GluN2D (L31611), GluA1 (X17184), GluK2 (Z11548). The current under voltage-clamp was recorded during perfusion with recording solution containing (in mM) 90 NaCl, 1.0 KCl, 0.5 BaCl2, 0.005 EDTA, and 10 HEPES at pH 7.4 (23° C.). Glass micropipettes had resistances of 0.3-1.0 MS2 and were filled with 3.0 M KCl. The membrane potential was clamped at −40 mV during the experiment. Recordings were digitized at 10 Hz and analyzed off line. 20 mM stock solutions of test compounds in 100% DMSO were made and diluted to obtain the final concentration; final DMSO content was 0.05-0.5% (vol/vol). Oocytes expressing GluK2 homomeric receptors were first treated with 10 μM concanavalin A (10 minutes). NMDA receptor responses were obtained by challenging oocytes with 100 μM glutamate plus 30 μM glycine; GluA1 and GluK2 receptors responses were recorded during application of 100 μM glutamate. We recorded the response to 5-7 concentrations of test drug co-applied with glutamate and glycine in 5 or more oocytes obtained from two different frogs. […] N is the Hill slope and maximum is the response predicted for saturating concentration of potentiator.

For assay [2], the target named is recombinant rat GluN1/GluN2C receptors (NR2C) (Rattus norvegicus (Rat), UniProt P35439+Q00961). As to the kind of experiment: Two-electrode voltage-clamp recordings, Xenopus laevis oocytes, NR2C. Conditions: head prints IC50; method describes EC50 of potentiator. As for the experimental part: as §1
Assay [3] has as its target recombinant rat GluN1/GluN2B receptors (NR2B) (Rattus norvegicus (Rat), UniProt P35439+Q00960). As to the kind of experiment: Two-electrode voltage-clamp recordings, Xenopus laevis oocytes, NR2B. Conditions: current in the absence of compound = 100%, 100 μM glutamate plus 30 μM glycine, read-out: NR2B response. As for the experimental part: as §1
In general terms: In two-electrode clamp one electrode senses voltage and the other passes current.

Assay [4] addresses recombinant rat GluN1/GluN2A receptors (NR2A) (Rattus norvegicus (Rat), UniProt P35439+Q00959). Kind of assay: Two-electrode voltage-clamp recordings, Xenopus laevis oocytes, NR2A. Conditions: current in the absence of compound = 100%, 100 μM glutamate plus 30 μM glycine, read-out: NR2A response. As for the experimental part:
as §1

The target in assay [5] is recombinant rat GluN1/GluN2C receptors (NR2C) (Rattus norvegicus (Rat), UniProt Q00961). As to the kind of experiment: Two-electrode voltage-clamp recordings, Xenopus laevis oocytes, NR2C. The settings on record: at 100 uM; current in the absence of compound = 100%; 100 μM glutamate plus 30 μM glycine. As for the experimental part:
as §1

recombinant rat GluN1/GluN2B receptors (NR2B), sequence (Q00960 27-1482, other chains not shown): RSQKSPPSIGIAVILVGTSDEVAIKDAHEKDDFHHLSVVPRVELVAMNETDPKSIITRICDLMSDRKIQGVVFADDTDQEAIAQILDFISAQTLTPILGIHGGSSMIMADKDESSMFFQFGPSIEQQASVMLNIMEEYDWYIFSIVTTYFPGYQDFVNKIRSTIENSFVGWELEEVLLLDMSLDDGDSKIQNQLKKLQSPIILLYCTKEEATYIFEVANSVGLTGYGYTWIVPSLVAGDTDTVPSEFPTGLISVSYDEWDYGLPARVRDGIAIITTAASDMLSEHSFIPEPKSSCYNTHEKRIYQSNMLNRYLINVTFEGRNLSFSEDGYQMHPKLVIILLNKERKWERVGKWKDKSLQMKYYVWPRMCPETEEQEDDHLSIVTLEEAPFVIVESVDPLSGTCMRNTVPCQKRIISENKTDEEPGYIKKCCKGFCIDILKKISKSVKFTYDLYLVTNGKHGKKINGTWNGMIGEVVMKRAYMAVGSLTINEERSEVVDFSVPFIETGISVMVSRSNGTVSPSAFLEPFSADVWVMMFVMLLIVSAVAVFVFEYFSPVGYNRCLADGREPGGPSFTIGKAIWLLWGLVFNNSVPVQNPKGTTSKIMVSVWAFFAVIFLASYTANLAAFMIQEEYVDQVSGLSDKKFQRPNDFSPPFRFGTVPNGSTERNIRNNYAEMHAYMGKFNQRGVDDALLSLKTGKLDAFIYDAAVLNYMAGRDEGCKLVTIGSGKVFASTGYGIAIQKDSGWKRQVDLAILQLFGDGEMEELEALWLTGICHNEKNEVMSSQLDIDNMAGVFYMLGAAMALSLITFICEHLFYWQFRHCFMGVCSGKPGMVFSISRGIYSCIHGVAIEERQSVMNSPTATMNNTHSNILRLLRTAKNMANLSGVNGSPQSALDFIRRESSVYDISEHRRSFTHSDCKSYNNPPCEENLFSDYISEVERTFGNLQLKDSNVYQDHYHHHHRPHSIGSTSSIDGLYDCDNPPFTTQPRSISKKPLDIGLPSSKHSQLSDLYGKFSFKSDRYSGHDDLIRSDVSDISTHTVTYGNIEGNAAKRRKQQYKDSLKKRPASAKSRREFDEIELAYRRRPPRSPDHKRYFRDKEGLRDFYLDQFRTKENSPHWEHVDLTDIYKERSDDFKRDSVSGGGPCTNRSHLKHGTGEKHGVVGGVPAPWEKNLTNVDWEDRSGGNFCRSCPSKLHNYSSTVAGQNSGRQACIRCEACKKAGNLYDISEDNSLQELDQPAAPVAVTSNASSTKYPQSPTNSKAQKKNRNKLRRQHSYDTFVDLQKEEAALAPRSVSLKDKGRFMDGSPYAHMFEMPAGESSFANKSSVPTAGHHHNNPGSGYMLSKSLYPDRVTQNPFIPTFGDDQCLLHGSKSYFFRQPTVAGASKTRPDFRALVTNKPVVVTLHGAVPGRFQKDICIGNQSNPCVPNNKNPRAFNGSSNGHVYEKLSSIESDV
recombinant rat GluN1/GluN2A receptors (NR2A), sequence (Q00959 23-1464, other chains not shown): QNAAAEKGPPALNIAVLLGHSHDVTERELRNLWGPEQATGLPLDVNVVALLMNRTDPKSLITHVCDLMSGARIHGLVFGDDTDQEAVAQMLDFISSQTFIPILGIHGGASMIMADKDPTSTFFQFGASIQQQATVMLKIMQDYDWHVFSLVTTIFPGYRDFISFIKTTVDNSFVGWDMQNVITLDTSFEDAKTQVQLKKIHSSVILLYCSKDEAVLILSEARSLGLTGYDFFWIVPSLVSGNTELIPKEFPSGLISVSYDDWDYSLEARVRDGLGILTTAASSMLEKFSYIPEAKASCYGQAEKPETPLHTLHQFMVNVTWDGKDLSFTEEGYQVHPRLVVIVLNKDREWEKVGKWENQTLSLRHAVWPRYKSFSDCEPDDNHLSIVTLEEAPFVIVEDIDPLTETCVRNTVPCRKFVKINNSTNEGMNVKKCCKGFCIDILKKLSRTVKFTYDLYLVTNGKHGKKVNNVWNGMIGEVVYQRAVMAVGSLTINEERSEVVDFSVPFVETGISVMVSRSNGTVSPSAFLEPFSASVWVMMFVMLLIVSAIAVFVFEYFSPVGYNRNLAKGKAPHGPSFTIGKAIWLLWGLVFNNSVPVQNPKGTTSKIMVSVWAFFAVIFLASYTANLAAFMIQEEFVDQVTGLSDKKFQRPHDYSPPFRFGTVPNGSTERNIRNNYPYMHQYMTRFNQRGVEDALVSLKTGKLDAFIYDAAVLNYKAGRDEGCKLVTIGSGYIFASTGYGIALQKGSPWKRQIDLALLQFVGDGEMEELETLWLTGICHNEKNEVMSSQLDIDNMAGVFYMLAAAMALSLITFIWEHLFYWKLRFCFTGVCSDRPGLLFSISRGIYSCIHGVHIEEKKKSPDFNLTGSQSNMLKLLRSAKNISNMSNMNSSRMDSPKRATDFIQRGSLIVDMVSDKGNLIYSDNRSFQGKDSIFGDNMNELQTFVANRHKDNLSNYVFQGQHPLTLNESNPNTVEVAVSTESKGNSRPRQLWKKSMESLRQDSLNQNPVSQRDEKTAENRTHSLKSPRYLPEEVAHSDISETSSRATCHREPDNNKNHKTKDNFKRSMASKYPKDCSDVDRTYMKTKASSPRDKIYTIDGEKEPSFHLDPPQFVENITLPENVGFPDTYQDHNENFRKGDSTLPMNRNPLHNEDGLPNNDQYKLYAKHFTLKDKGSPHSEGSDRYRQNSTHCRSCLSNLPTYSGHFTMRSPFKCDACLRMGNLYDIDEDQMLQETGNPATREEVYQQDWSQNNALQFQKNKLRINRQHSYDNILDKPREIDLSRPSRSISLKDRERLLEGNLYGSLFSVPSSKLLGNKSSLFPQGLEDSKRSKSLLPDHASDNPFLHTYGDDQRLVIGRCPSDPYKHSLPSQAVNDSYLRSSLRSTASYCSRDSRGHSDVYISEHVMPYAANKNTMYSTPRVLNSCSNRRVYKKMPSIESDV
recombinant rat GluN1/GluN2C receptors (NR2C) (Rattus norvegicus (Rat), UniProt P35439+Q00961), sequence (Q00961 20-1237, other chains not shown): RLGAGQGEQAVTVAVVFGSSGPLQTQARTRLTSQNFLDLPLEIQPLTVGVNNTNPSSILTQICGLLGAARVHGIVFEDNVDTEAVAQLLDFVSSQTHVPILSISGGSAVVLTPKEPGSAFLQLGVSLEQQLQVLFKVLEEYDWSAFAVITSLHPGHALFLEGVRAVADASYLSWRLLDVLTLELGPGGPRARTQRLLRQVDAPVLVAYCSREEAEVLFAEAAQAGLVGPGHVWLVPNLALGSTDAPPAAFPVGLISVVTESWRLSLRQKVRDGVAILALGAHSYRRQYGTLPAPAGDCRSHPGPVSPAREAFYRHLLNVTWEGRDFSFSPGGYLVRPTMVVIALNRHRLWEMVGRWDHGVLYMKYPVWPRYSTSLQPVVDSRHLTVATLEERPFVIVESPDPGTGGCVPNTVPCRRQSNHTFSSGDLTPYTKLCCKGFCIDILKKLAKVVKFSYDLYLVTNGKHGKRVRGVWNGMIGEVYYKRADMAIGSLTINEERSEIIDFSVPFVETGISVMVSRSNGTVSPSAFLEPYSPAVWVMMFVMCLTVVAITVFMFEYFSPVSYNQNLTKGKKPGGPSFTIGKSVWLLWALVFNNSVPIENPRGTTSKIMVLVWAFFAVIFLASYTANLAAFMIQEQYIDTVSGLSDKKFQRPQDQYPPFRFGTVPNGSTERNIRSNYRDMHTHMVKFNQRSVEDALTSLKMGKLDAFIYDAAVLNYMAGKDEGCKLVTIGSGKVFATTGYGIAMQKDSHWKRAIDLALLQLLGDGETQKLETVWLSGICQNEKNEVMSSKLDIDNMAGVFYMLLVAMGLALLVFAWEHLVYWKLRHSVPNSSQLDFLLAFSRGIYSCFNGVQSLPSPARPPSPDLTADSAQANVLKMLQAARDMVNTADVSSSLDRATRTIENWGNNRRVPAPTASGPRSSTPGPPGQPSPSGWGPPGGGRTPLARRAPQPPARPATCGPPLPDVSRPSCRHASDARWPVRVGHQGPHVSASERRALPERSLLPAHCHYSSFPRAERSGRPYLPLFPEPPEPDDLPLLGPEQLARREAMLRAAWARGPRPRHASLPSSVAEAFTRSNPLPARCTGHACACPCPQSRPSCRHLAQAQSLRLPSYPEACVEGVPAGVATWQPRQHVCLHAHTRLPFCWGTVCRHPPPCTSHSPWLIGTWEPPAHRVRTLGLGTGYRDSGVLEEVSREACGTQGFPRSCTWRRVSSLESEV
recombinant rat GluN1/GluN2C receptors (NR2C) (Rattus norvegicus (Rat), UniProt Q00961), sequence (Q00961 20-1237, other chains not shown): as above

Regarding `COC(=O)c1ccc(C2C(C(=O)c3cccnc3)=C(O)C(=O)N2CCc2c[nH]c3cc(C)ccc23)cc1` (centres unmarked), the values for the activity at 100 µM in assay [1], in assay [3] and in assay [4] were 64%, 66% and 91%, respectively. Further, in assay [2], the EC50 (potentiation) was 4 µM.

Take `CCOC(=O)c1ccc(C2C(C(=O)c3cccnc3)=C(O)C(=O)N2CCc2c[nH]c3cc(C)ccc23)cc1` (centres unmarked): the values for the activity at 100 µM in assay [1], in assay [3] and in assay [4] were 69%, 61% and 74%, respectively. The EC50 (potentiation) in assay [2] came out at 7 µM.

As to `CCOC(=O)c1ccc(C2C(C(=O)c3ccncc3)=C(O)C(=O)N2CCc2c[nH]c3cc(C)ccc23)cc1` (centres unmarked), the activity at 100 µM came to 73% in assay [1], 77% in assay [3] and 99% in assay [4]. The EC50 (potentiation) in assay [2] stood at 9 µM.

As for `COC(=O)c1ccc(C2C(C(=O)c3ccncc3)=C(O)C(=O)N2CCc2c[nH]c3ccccc23)cc1` (centres unmarked), the activity at 100 µM in assay [1] amounted to 72%; in assay [3] it was 72%; in assay [4], 78%. The EC50 (potentiation) in assay [2] amounted to 8 µM.

In the case of `CCOC(=O)c1ccc(C2C(C(C)=O)=C(O)C(=O)N2CCc2c[nH]c3ccccc23)cc1` (centres unmarked), the activity at 100 µM in assay [1] was found to be 79%; in assay [3], 75%; in assay [4], 96%. The EC50 (potentiation) in assay [2] is 15 µM.

Take `CCOC(=O)c1ccc(C2C(C(C)=O)=C(O)C(=O)N2CCc2c(C)[nH]c3ccccc23)cc1` (centres unmarked): the activity at 100 µM in assay [1] came out at 73%; in assay [3] it was 79%; in assay [4], 89%. The EC50 (potentiation) in assay [2] was 12 µM.

In the case of `COC(=O)c1ccc(C2C(C(C)=O)=C(O)C(=O)N2CCc2c[nH]c3ccccc23)c(OC)c1` (centres unmarked), the results for the activity at 100 µM in assay [1], in assay [3] and in assay [4] were 99%, 79% and 99%, respectively. The EC50 (potentiation) in assay [2] is 20 µM.

For the molecule `COC(=O)c1ccc(C2C(C(C)=O)=C(O)C(=O)N2CCc2c[nH]c3ccccc23)c(O)c1` (centres unmarked), the activity at 100 µM amounted to 79% in assay [1], 77% in assay [3] and 102% in assay [4]. Further, the EC50 (potentiation) in assay [2] came to 15 µM.

`COC(=O)c1ccc(C2C(C(=O)c3cccnc3)=C(O)C(=O)N2CCc2c[nH]c3cc(F)ccc23)cc1` (centres unmarked): the activity at 100 µM in assay [1] was found to be 64%; in assay [3], 37%; in assay [4] it was 80%. In addition, the EC50 (potentiation) in assay [2] is 14 µM.

Take `COC(=O)c1ccc(C2C(C(=O)c3cccnc3)=C(O)C(=O)N2CCc2c[nH]c3cc(Cl)ccc23)cc1` (centres unmarked): the activity at 100 µM came to 61% in assay [1], 43% in assay [3] and 83% in assay [4]. Also, the EC50 (potentiation) in assay [2] was found to be 4 µM.

As to `COC(=O)c1ccc(C2C(C(=O)c3ccccc3Cl)=C(O)C(=O)N2CCc2c[nH]c3ccccc23)cc1` (centres unmarked), the activity at 100 µM in assay [1] is 115%; in assay [3] it was 72%; in assay [4] it was 68%. Also, in assay [2], the EC50 (potentiation) was found to be 26 µM.

Take `COC(=O)c1ccc(C2C(C(=O)c3cccc(O)c3)=C(O)C(=O)N2CCc2c[nH]c3ccccc23)cc1` (centres unmarked): in assay [2], the EC50 (potentiation) was 5 µM. Also, the activity at 100 µM in assay [4] was 76%.

Consider `COC(=O)c1ccc(C2C(C(=O)c3ccncc3)=C(O)C(=O)N2CCc2cccc3ccccc23)cc1` (centres unmarked), for which the EC50 (potentiation) in assay [2] turned out to be 11 µM.

As for `O=C(C1=C(O)C(=O)N(CCc2c[nH]c3ccccc23)C1c1cccs1)c1cccnc1` (centres unmarked), the activity at 100 µM in assay [1] stood at 73%; in assay [3], 71%; in assay [4], 43%. The EC50 (potentiation) in assay [2] amounted to 12 µM.

`COC(=O)c1ccc(C2C(C(=O)c3ccncc3)=C(O)C(=O)N2CCc2c[nH]cn2)cc1` (centres unmarked): the activity at 100 µM in assay [1] came out at 90%; in assay [3], 91%; in assay [4], 97%. For the same molecule, the NR2C response in assay [5] amounted to 84% response at 100 uM.

As for `COC(=O)c1ccc(C2C(C(=O)c3ccncc3)=C(O)C(=O)N2CCc2ccncc2)cc1` (centres unmarked), the activity at 100 µM in assay [1] came out at 95%; in assay [3], 94%; in assay [4] it was 103%. In addition, the NR2C response in assay [5] turned out to be 97% response at 100 uM.
